Common to all, as to format: functional
Experiment [1] concerns Rodentolepis nana. Description: Anthelmintic activity against Hymenolepis nana infected in mouse assessed as reduction in worm burden at 100 mg/kg administered bid for 3 days relative to control. Also on record: scale not given: the % may be the effect or the level left.
Experiment [2] deals with Rodentolepis nana. Description: Anthelmintic activity against Hymenolepis nana infected in mouse assessed as reduction in worm burden at 50 mg/kg administered bid for 3 days relative to control.
Experiment [3] relates to Rodentolepis nana. Description: Anthelmintic activity against Hymenolepis nana infected in mouse assessed as reduction in worm burden at 300 mg/kg administered bid for 3 days relative to control. Further details: scale not given: the % may be the effect or the level left.
The test system of experiment [4] is Rodentolepis nana. The experiment in a line: Anthelmintic activity against Hymenolepis nana infected in mouse assessed as reduction in worm burden at 25 mg/kg administered bid for 3 days relative to control.

Structures are written as SMILES. Calls of active or inactive are those of the source. The rule behind the calls is not given here.

On to `COc1cc(Nc2cc(C)nc3ccc4nc[nH]c4c23)cc(OC)c1OC`, for which the Activity in the experiment on Rodentolepis nana [1] came to 70%. Moreover, the result with Rodentolepis nana [2] was inactive.
Take `Cc1cc(Nc2ccc(N(C)C)c(Cl)c2)c2c(ccc3nc[nH]c32)n1`: the Activity with Rodentolepis nana [1] turned out to be 71%. The result in the experiment on Rodentolepis nana [2] was inactive.
With `CSc1ccccc1Nc1cc(C)nc2ccc3nc[nH]c3c12`, the Activity in the experiment on Rodentolepis nana [3] came to 93%. Further, the result in the experiment with Rodentolepis nana [1] was inactive.
`Cc1cc(Nc2cccc(Cl)c2C)c2c(ccc3nc[nH]c32)n1`: the Activity in the experiment on Rodentolepis nana [1] is 100%; with Rodentolepis nana [2], 94%. The result with Rodentolepis nana [4] was inactive.
The matching figures for `CCCCOc1ccc(Nc2cc(C)nc3ccc4nc[nH]c4c23)cc1OCCCC`: 100%, 95% and “inactive”.
On to `CCN(CC)c1ccc(Nc2cc(C)nc3ccc4nc[nH]c4c23)cc1`, for which the Activity with Rodentolepis nana [1] was found to be 79%. In addition, the result with Rodentolepis nana [2] was inactive.
On the same counts, the results for `CSc1cccc(Nc2cc(C)nc3ccc4nc[nH]c4c23)c1` are 100% and “inactive”.
In the case of `CCCCc1ccc(Nc2cc(C)nc3ccc4nc[nH]c4c23)cc1Cl`, the Activity in the experiment with Rodentolepis nana [1] is on record as 100%; in the experiment on Rodentolepis nana [2] it was 100%; in the experiment with Rodentolepis nana [4], 65%.
Regarding `Cc1cc(Nc2ccc(/N=N\c3ccccc3)cc2)c2c(ccc3nc[nH]c32)n1`, the Activity in the experiment with Rodentolepis nana [3] was determined as 100%. Further, in the experiment on Rodentolepis nana [1], the outcome was inactive.
Turning to `CCc1ccc(Nc2cc(C)nc3ccc4nc[nH]c4c23)cc1Cl`, the Activity in the experiment with Rodentolepis nana [1] is 100%; with Rodentolepis nana [2] it was 93%. Further, in the experiment with Rodentolepis nana [4], the outcome was inactive.
With `Cc1cc(Nc2ccc(I)cc2)c2c(ccc3nc[nH]c32)n1`, the Activity with Rodentolepis nana [1] was 84%. Moreover, the outcome with Rodentolepis nana [2] was inactive.
Regarding `CCC(=O)c1ccc(Nc2cc(C)nc3ccc4nc[nH]c4c23)cc1`, the figures for the Activity in the experiment on Rodentolepis nana [1] and in the experiment on Rodentolepis nana [2] were 75% and 78%, respectively. For the same compound, in the experiment with Rodentolepis nana [4], the outcome was inactive.
On the same counts, the results for `CCOc1cc(OCC)c(OCC)cc1Nc1cc(C)nc2ccc3nc[nH]c3c12` are 89%, 80% and “inactive”.
On to `COc1ccc(Nc2cc(-c3ccccc3)nc3ccc4nc[nH]c4c23)cc1`, for which the Activity with Rodentolepis nana [1] worked out at 66%. The outcome in the experiment on Rodentolepis nana [2] was inactive.
For the compound `CCCCc1ccc(Nc2cc(-c3ccccc3)nc3ccc4nc[nH]c4c23)cc1`, in the experiment with Rodentolepis nana [3], the Activity is 69%. Moreover, in the experiment with Rodentolepis nana [1], the outcome was inactive.
On to `CCCCCOc1ccc(Nc2cc(C)nc3ccc4nc[nH]c4c23)cc1OCCCCC`, for which the Activity in the experiment on Rodentolepis nana [1] is listed as 63%. The outcome with Rodentolepis nana [2] was inactive.
For the compound `CCc1cc(Nc2ccc(OC)cc2)c2c(ccc3nc[nH]c32)n1`, the Activity with Rodentolepis nana [1] was 46%. Besides, the outcome with Rodentolepis nana [2] was inactive.
For the compound `CCOc1ccc(OC)c(Nc2cc(C)nc3ccc4nc[nH]c4c23)c1`, the Activity with Rodentolepis nana [1] is 100%; with Rodentolepis nana [2] it was 89%. For the same compound, the result in the experiment on Rodentolepis nana [4] was inactive.
Turning to `Cc1cc(Nc2ccc(Oc3ccccc3)cc2)c2c(ccc3nc[nH]c32)n1`, the Activity in the experiment with Rodentolepis nana [1] was 100%; with Rodentolepis nana [2] it was 66%. In addition, the result in the experiment with Rodentolepis nana [4] was inactive.
The matching figures for `CCOc1ccc(OC)cc1Nc1cc(C)nc2ccc3nc[nH]c3c12`: 100%, 76% and “inactive”.
Take `Cc1cc(Nc2ccc(N3CCN(C)CC3)c(Cl)c2)c2c(ccc3nc[nH]c32)n1`: the Activity in the experiment with Rodentolepis nana [3] amounted to 100%. Also, in the experiment with Rodentolepis nana [1], the result was inactive.
The matching figures for `Cc1cc(Nc2cccc(Nc3ccc(N4CCN(C)CC4)nc3)c2)c2c(ccc3nc[nH]c32)n1`: 64% and “inactive”.
For the compound `Cc1cc(Nc2ccc(N3CCCC3)c(Cl)c2)c2c(ccc3nc[nH]c32)n1`, the Activity is 100% in the experiment with Rodentolepis nana [1] and 46% with Rodentolepis nana [2]. Besides, in the experiment with Rodentolepis nana [4], the result was inactive.
On the same counts, the results for `Cc1cc(Nc2ccc(Cl)c(C(F)(F)F)c2)c2c(ccc3nc[nH]c32)n1` are 84%, 87% and “inactive”.
On the same counts, the results for `CCOc1ccc(OCC)c(Nc2cc(C)nc3ccc4nc[nH]c4c23)c1` are 100%, 100% and “inactive”.
In the case of `CCC(C)c1ccc(Nc2cc(C)nc3ccc4nc[nH]c4c23)cc1` (centres undefined), the Activity with Rodentolepis nana [1] is 100%. Besides, the outcome in the experiment with Rodentolepis nana [2] was inactive.
Turning to `CCOc1ccc(Nc2cc(C)nc3ccc4nc[nH]c4c23)cc1OCC`, the results for the Activity in the experiment on Rodentolepis nana [1] and in the experiment on Rodentolepis nana [2] were 100% and 84%, respectively. The outcome in the experiment on Rodentolepis nana [4] was inactive.
Take `CCN(CC)CCOc1ccc(Nc2cc(C)nc3ccc4nc[nH]c4c23)cc1`: the Activity in the experiment with Rodentolepis nana [3] worked out at 100%. Besides, in the experiment with Rodentolepis nana [1], the outcome was inactive.
For the compound `CCOc1ccc(Nc2cc(C)nc3ccc4nc[nH]c4c23)cc1`, the Activity in the experiment with Rodentolepis nana [1] is recorded as 100%. Moreover, the result in the experiment on Rodentolepis nana [2] was inactive.
On the same counts, the results for `CSc1ccc(Nc2cc(C)nc3ccc4nc[nH]c4c23)cc1` are 100% and 62%.
On the same counts, the results for `Cc1cc(Nc2ccc(OCc3ccccc3)cc2)c2c(ccc3nc[nH]c32)n1` are 81% and 64%.
The matching figures for `COc1cccc(Nc2cc(C)nc3ccc4[nH]cnc4c23)c1`: 73% and “inactive”.
For the compound `COc1cc(Cl)ccc1Nc1cc(C)nc2ccc3nc[nH]c3c12`, in the experiment with Rodentolepis nana [1], the Activity worked out at 52%. Moreover, the outcome with Rodentolepis nana [2] was inactive.
On the same counts, the results for `Cc1cc(Nc2cccc3ccccc23)c2c(ccc3nc[nH]c32)n1` are 100% and “inactive”.
On to `COc1ccc(Nc2cccc(Nc3cc(C)nc4ccc5nc[nH]c5c34)c2)cn1`, for which the Activity in the experiment with Rodentolepis nana [1] was 100%; in the experiment with Rodentolepis nana [2] it was 94%. In addition, the result with Rodentolepis nana [4] was inactive.
For the compound `CC(=O)c1cccc(Nc2cc(C)nc3ccc4nc[nH]c4c23)c1`, the Activity in the experiment on Rodentolepis nana [1] worked out at 96%. The result with Rodentolepis nana [2] was inactive.
For the compound `CCOc1cc(Nc2cc(C)nc3ccc4nc[nH]c4c23)c(OCC)cc1Cl`, the Activity in the experiment on Rodentolepis nana [1] and in the experiment with Rodentolepis nana [2] was 100% in each case. Further, in the experiment with Rodentolepis nana [4], the result was inactive.
As to `Cc1cc(Nc2ccccc2)c2c(ccc3nc[nH]c32)n1`, in the experiment on Rodentolepis nana [1], the Activity was 40%.
For the compound `Cc1cc(Nc2ccc(Br)cc2)c2c(ccc3nc[nH]c32)n1`, the Activity with Rodentolepis nana [1] is 61%. Further, the result in the experiment with Rodentolepis nana [2] was inactive.
On to `Cc1cc(Nc2ccc(F)c(Cl)c2)c2c(ccc3nc[nH]c32)n1`, for which the Activity in the experiment with Rodentolepis nana [1] came to 82%. The result in the experiment with Rodentolepis nana [2] was inactive.
As for `Cc1cc(Nc2ccc3ccccc3c2)c2c(ccc3nc[nH]c32)n1`, in the experiment on Rodentolepis nana [1], the Activity is 72%. Moreover, in the experiment on Rodentolepis nana [2], the outcome was inactive.
With `Cc1cc(Nc2ccc(OC(C)C)c(OC(C)C)c2)c2c(ccc3nc[nH]c32)n1`, the Activity in the experiment with Rodentolepis nana [1] is given as 100%; with Rodentolepis nana [2], 94%. The result in the experiment on Rodentolepis nana [4] was inactive.
Take `Cc1cc(Nc2ccc(Cl)cc2C)c2c(ccc3nc[nH]c32)n1`: in the experiment with Rodentolepis nana [1], the Activity is reported as 100%. Moreover, in the experiment with Rodentolepis nana [2], the outcome was inactive.
Take `COc1ccc(Nc2cc(C)nc3ccc4nc(-c5ccccc5)[nH]c4c23)cc1`: in the experiment on Rodentolepis nana [1], the Activity was 94%. Besides, the outcome in the experiment with Rodentolepis nana [2] was inactive.
The matching figures for `COc1ccc(Nc2cc(C)nc3ccc4nc[nH]c4c23)cc1OC`: 73% and “inactive”.
On the same counts, the results for `COc1ccccc1Nc1cc(C)nc2ccc3nc[nH]c3c12` are 66% and “inactive”.
As to `COc1ccc(OC)c(Nc2cc(C)nc3ccc4nc[nH]c4c23)c1`, the Activity with Rodentolepis nana [1] was determined as 100%. Besides, the result in the experiment with Rodentolepis nana [2] was inactive.
Consider `Cc1cc(Nc2ccc(-c3ccccc3)cc2)c2c(ccc3nc[nH]c32)n1`, for which the results for the Activity with Rodentolepis nana [1] and in the experiment with Rodentolepis nana [2] were 100% and 94%, respectively. For the same compound, the outcome in the experiment on Rodentolepis nana [4] was inactive.
As for `Cc1cc(Nc2ccc(C)c(Cl)c2)c2c(ccc3nc[nH]c32)n1`, the Activity in the experiment with Rodentolepis nana [1] stood at 94%; in the experiment with Rodentolepis nana [2] it was 90%. The result in the experiment with Rodentolepis nana [4] was inactive.
As to `COc1ccc(Nc2cc(C)nc3ccc4nc[nH]c4c23)cc1`, the Activity in the experiment with Rodentolepis nana [1] is listed as 64%. In the experiment with Rodentolepis nana [2], the result was inactive.
The matching figures for `Cc1cc(Nc2ccc(N(C)C)cc2)c2c(ccc3nc[nH]c32)n1`: 100% and “inactive”.
As for `Cc1cc(Nc2ccc(N3CCCCC3)cc2)c2c(ccc3nc[nH]c32)n1`, the Activity in the experiment on Rodentolepis nana [1] is reported as 64%; with Rodentolepis nana [2], 62%. In addition, the outcome with Rodentolepis nana [4] was inactive.
The matching figures for `Cc1cc(Nc2ccc(C(C)C)cc2)c2c(ccc3nc[nH]c32)n1`: 100%, 53% and “inactive”.
`Cc1cc(Nc2ccc(N3CCCCC3)c(Cl)c2)c2c(ccc3nc[nH]c32)n1`: the Activity in the experiment with Rodentolepis nana [1] was found to be 100%; in the experiment on Rodentolepis nana [2], 80%. The result in the experiment on Rodentolepis nana [4] was inactive.
Turning to `CCOc1ccc(Nc2cc(C)nc3ccc4nc[nH]c4c23)cc1Cl`, the Activity with Rodentolepis nana [1] amounted to 100%; with Rodentolepis nana [2], 50%. Also, the outcome in the experiment with Rodentolepis nana [4] was inactive.
In the case of `COc1cc(OC)c(Nc2cc(C)nc3ccc4nc[nH]c4c23)cc1Cl`, the Activity in the experiment with Rodentolepis nana [1] stood at 85%; in the experiment with Rodentolepis nana [2], 82%. The outcome in the experiment on Rodentolepis nana [4] was inactive.
On the same counts, the results for `Cc1cc(Nc2cccc(N(C)C)c2)c2c(ccc3nc[nH]c32)n1` are 100%, 87% and “inactive”.
As for `Cc1cc(Nc2ccc(Cl)c(Cl)c2)c2c(ccc3nc[nH]c32)n1`, in the experiment on Rodentolepis nana [1], the Activity turned out to be 65%. In addition, the outcome in the experiment on Rodentolepis nana [2] was inactive.
